Series [1] concerns Listeria monocytogenes. Description: Challenge test Listeria in fresh ground sausage. It is filed as cell-based.
For series [2], the system named is lactic flora. Description: Lactic flora in cooked emulsified sausage during storage. Format: cell-based.
The test system of series [3] is total flora. The series is described as follows: Total plate count in cooked emulsified sausage during storage. Format: cell-based.
Series [4] concerns Listeria monocytogenes. The following applies: emulsified sausage; 4° C. then 8° C.
Series [5] is described as follows: Color and stability study in emulsified cooked sausage (visual, L*a*b*, hue angle, delta a*, delta E). Format: physicochemical.
For series [6], the system named is Clostridium botulinum (group II type B). Format: cell-based.
In series [7] the test system is toxins of C. botulinum. Also on record: species or system Clostridium botulinum. The following applies: in vivo.
Series [8] deals with lactic acid bacteria. The series is described as follows: Endogenous lactic acid bacteria in cooked emulsified sausage model. It is filed as cell-based.
A short description of series [9]: pH of emulsified cooked sausage modalities before and after cooking. Format: physicochemical.
Setting [10] is: cooked emulsified sausage, d0 to d21.
Setting [11] is: emulsified sausage, modalities 3-6 also contain 3000 ppm Natstabil M2 blend1.

Values joined by “and” are separate entries in the source; they are usually repeats but may differ in a detail not shown here. Equal entries are not always repeated.

As for lactate, the “Δ log cfu/g versus untreated control” value in series [1] (d8) is −0.9 log cfu/g. Further, the lactic flora growth result in series [2] is “normal growth”. Besides, the total flora growth result in [3] was “normal growth”.
Consider `O=NO` [Nitrite], for which, in [4], the “Listeria growth during shelf-life” value is recorded as “cannot limit the growth”. Besides, the “sausage color after 21 days of storage (visual)” value in series [5] (10 days at 4° C. and 11 days at 8° C.) is given as “slightly degraded (pale orange shade)”. Further, in series [5] (setting [10]), the “a* value over time” value was “a* values more important than control, stable over time” and the “b* value over time” value is reported as “slight increase of b* value at d21”. Further, in series [5] (setting [11]), the “meat color before cooking (visual)” value is on record as “grey” and the “sausage color after cooking (visual)” value is given as “light pink”. In series [1] (d4), the “Δ log cfu/g versus untreated control” value was under −0.5 log cfu/g. Also, the “Δ log cfu/g versus untreated control” value in series [1] (d8) is given as under −0.5 log cfu/g. Besides, in series [6], the “C. botulinum (spores + vegetative cells) D0 before cooking” value is 250 CFU/g and 450 CFU/g and 400 CFU/g; the “C. botulinum (spores + vegetative cells) Day 30” value is <5 CFU/g and 5 CFU/g; the “C. botulinum (spores + vegetative cells) Day 40” value is 5 CFU/g and <5 CFU/g; the “C. botulinum (spores only) D0 after cooking” value was <5 CFU/g and 5 CFU/g. Moreover, in series [6], the “C. botulinum (spores only) Day 21” value is recorded as under 5 CFU/g, the “C. botulinum (spores only) Day 30” value is under 5 CFU/g and the “C. botulinum (spores only) Day 40” value is under 5 CFU/g. In [7], the “Detection of toxins of C. botulinum, positive samples of 5, Day 21” value is 0/5; the “Detection of toxins of C. botulinum, positive samples of 5, Day 40” value was 0/5; the “production of C. botulinum toxin” value is listed as “inhibit the production of toxin”. In series [2], the lactic flora growth result is recorded as “normal growth”. In series [8] (14 days at 4° C., 2 h at 20° C. and 26 days at 8° C.), the “Lactic acid bacteria Day 40” value was under 5 CFU/g. Further, the “Lactic acid bacteria D0 after cooking” value in [8] (inoculated sausage model) is on record as under 5 CFU/g. In [3], the total flora growth entry is on record as “normal growth”. In [9], the “pH after cooking d0” value was 6.48, the pH before cooking is 6.31, the “pH d7” value stood at 6.43 and the “pH d14” value was 6.47. Further, the “pH d21” value in [9] came out at 6.47.

The values are drawn from US20230248025A1 (priority 2020, published 2023).
